From US10562908B2, “Ortho substituted phenylpyrazolo- and phenylpyrrolo-pyridazine derivatives having multimodal activity against pain” (priority 2016, dated 2020) come the findings set out here.

Like-named read-outs stand apart in the source and are kept apart here. Where only a bound is given, the exact number is not on record here.

One experiment addresses T1, human μ-opioid receptor (Homo sapiens, UniProt P35372).
T1 construct: expressed in transfected cells; host or cells: CHO-K1
Nature of the experiment: Human μ-opioid receptor radioligand assay ([3H]-DAMGO). The class given is binding. The procedure:
Human μ-Opioid Receptor Radioligand Assay
To investigate binding properties of test compounds to human μ-opioid receptor, transfected CHO-K1 cell membranes and [^3H]-DAMGO (Perkin Elmer, ES-542-C), as the radioligand, were used. The assay was carried out with 20 μg of membrane suspension, 1 nM of [^3H]-DAMGO in either absence or presence of either buffer or 10 μM Naloxone for total and non-specific binding, respectively. Binding buffer contained Tris-HCl 50 mM, MgCl2 5 mM at pH 7.4. Plates were incubated at 27° C. for 60 minutes. After the incubation period, the reaction mix was then transferred to MultiScreen HTS, FC plates (Millipore), filtered and plates were washed 3 times with ice-cold 10 mM Tris-HCL (pH 7.4). Filters were dried and counted at approximately 40% efficiency in a MicroBeta scintillation counter (Perkin-Elmer) using EcoScint liquid scintillation cocktail, preferably, transfected CHO-K1 cell membranes (20 μg) were incubated with 1 nM of [^3H]-DAMGO in assay buffer containing Tris-HCl 50 mM, MgCl2 5 mM at pH 7.4. NBS (non-specific binding) was measured by adding 10 μM Naloxone. The binding of the test compound was measured at five different concentrations. Plates were incubated at 27° C. for 60 minutes. After the incubation period, the reaction mix was then transferred to MultiScreen HTS, FC plates (Millipore), filtered and plates were washed 3 times with ice-cold 10 mM Tris-HCL (pH 7.4). Filters were dried and counted at approximately 40% efficiency in a MicroBeta scintillation counter (Perkin-Elmer) using EcoScint liquid scintillation cocktail.

Experiment [1] addresses Human α2δ-1 subunit of Cav2.2 calcium channel (Homo sapiens, UniProt P54289). The experiment can be described thus: Human α2δ-1 subunit of Cav2.2 calcium channel assay ([3H]-Gabapentin). The class given is binding. Here is the method:
Human α2δ-1 Subunit of Cav2.2 Calcium Channel Assay
Human α2δ-1 enriched membranes (2.5 μg) were incubated with 15 nM of radiolabeled [3H]-Gabapentin in assay buffer containing Hepes-KOH 10 mM, pH 7.4. NSB (non specific binding) was measured by adding 10 μM pregabalin. After 60 min incubation at 27° C., binding reaction was terminated by filtering through Multiscreen GF/C (Millipore) presoaked in 0.5% polyethyleneimine in Vacuum Manifold Station, followed by 3 washes with ice-cold filtration buffer containing 50 mM Tris-HCl, pH 7.4. Filter plates were dried at 60° C. for 1 hour and 30 μl of scintillation cocktail were added to each well before radioactivity reading. Readings were performed in a Trilux 1450 Microbeta radioactive counter (Perkin Elmer), i.e. Human α2δ-1 enriched membranes (2.5 μg) were incubated with 15 nM of radiolabeled [3H]-Gabapentin in assay buffer containing Hepes-KOH 10 mM, pH 7.4. NSB (non specific binding) was measured by adding 10 μM pregabalin. The binding of the test compound was measured at five different concentrations. After 60 min incubation at 27° C., binding reaction was terminated by filtering through Multiscreen GF/C (Millipore) presoaked in 0.5% polyethyleneimine in Vacuum Manifold Station, followed by 3 washes with ice-cold filtration buffer containing 50 mM Tris-HCl, pH 7.4. Filter plates were dried at 60° C. for 1 hour and 30 μl of scintillation cocktail were added to each well before radioactivity reading. Readings were performed in a Trilux 1450 Microbeta radioactive counter (Perkin Elmer).

Setting [2] is: transfected CHO-K1 cell membranes, 1 nM [3H]-DAMGO, read-out: Binding μ (Ki).
Setting [3] is: human α2δ-1 enriched membranes, 15 nM [3H]-Gabapentin, read-out: Binding α2δ-1 (Ki).

Human α2δ-1 subunit of Cav2.2 calcium channel, sequence (P54289 25-1103): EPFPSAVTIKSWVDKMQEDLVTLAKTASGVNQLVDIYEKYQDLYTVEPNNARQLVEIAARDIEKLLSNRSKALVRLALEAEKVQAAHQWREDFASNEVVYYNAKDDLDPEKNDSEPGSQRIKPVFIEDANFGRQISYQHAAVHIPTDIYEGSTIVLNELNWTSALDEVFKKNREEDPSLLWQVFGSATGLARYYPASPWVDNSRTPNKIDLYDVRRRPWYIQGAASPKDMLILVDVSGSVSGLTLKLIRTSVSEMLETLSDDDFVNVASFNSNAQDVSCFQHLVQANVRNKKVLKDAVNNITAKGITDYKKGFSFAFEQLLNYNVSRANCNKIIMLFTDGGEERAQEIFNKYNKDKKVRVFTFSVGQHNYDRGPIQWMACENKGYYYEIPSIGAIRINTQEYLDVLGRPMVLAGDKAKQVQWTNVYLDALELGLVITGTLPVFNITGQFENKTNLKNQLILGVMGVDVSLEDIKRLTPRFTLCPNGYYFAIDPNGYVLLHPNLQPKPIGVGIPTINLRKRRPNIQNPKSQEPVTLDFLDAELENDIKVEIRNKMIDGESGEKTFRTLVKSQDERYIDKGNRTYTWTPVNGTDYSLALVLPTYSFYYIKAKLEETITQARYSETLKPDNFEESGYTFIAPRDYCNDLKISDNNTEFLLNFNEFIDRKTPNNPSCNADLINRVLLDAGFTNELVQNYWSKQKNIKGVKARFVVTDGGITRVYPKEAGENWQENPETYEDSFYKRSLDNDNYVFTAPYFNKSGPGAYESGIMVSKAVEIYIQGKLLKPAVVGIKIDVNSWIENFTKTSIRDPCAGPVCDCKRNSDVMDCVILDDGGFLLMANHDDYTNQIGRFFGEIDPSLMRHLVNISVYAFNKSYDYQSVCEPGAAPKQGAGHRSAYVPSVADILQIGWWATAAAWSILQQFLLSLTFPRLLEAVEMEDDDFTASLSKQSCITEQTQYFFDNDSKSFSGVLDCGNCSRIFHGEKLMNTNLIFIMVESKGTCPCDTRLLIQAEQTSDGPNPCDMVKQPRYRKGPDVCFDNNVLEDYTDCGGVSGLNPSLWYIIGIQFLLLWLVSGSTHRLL
T1 sequence (P35372 whole entry): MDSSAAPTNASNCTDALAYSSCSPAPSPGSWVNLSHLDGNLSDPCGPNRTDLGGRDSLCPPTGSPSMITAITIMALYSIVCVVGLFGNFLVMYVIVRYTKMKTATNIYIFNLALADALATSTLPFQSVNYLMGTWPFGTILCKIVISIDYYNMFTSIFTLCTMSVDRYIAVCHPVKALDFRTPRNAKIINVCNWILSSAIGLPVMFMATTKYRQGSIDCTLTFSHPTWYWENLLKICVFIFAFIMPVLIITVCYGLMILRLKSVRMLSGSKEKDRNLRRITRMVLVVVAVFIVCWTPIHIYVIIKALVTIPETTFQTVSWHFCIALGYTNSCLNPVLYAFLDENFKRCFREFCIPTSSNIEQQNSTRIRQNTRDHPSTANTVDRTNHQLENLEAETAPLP

For `Cc1nnc(N(C)C)c2nn(-c3ccccc3OC(CCN)c3ccccc3)c(C)c12` (stereo not drawn) [Example 38, 2-(2-(3-amino-1-phenylpropoxy)phenyl)-N,N,3,4-tetramethyl-2H-pyrazolo[3,4-d]pyridazin-7-amine], the Ki at human μ-opioid receptor (setting [2]) was above 500 nM; in experiment [1] (setting [3]), 500 to 5000 nM.
The like results for `CNCCC(Oc1ccccc1-n1nc2c(Cc3noc(C)n3)nnc(C)c2c1C)c1ccccc1` (stereo not drawn) [Example 64, 3-(2-(3,4-Dimethyl-7-((5-methyl-1,2,4-oxadiazol-3-yl)methyl)-2H-pyrazolo[3,4-d]pyridazin-2-yl)phenoxy)-N-methyl-3-phenylpropan-1-amine] were, in that order, above 500 nM and above 5000 nM.
The like results for `CNCCC(Oc1ccccc1-n1nc2c(N(C)C)nnc(C)c2c1C)c1ccc(C(N)=O)cc1` (stereo not drawn) [Example 92, 4-(1-(2-(7-(dimethylamino)-3,4-dimethyl-2H-pyrazolo[3,4-d]pyridazin-2-yl)phenoxy)-3-(methylamino)propyl)benzamide] were, in that order, above 500 nM and 500 to 5000 nM.
For `CNCCC(Oc1ccccc1-n1nc2c(N(C)C)nnc(C)c2c1C)c1nccs1` (stereo not drawn) [Example 33, N,N,3,4-tetramethyl-2-(2-(3-(methylamino)-1-(thiazol-2-yl)propoxy)phenyl)-2H-pyrazolo[3,4-d]pyridazin-7-amine], the Ki on human μ-opioid receptor (setting [2]) was above 500 nM; in experiment [1] (setting [3]), 500 to 5000 nM.
Regarding `Cc1nnc(N(C)C)c2nn(-c3ccccc3O[C@H](c3ccccc3)[C@@H]3CNCCO3)c(C)c12` [Example 49, N,N,3,4-tetramethyl-2-(2-((R)-((S)-morpholin-2-yl)(phenyl)methoxy)phenyl)-2H-pyrazolo[3,4-d]pyridazin-7-amine], the Ki was above 500 nM at human μ-opioid receptor (setting [2]) and 500 to 5000 nM in experiment [1] (setting [3]).
`CCNCCC(Oc1ccccc1-n1nc2c(N(C)C)nnc(C)c2c1C)c1ccccc1` (stereo not drawn) [Example 1, 2-(2-(3-(Ethylamino)-1-phenylpropoxy)phenyl)-N,N,3,4-tetramethyl-2H-pyrazolo[3,4-d]pyridazin-7-amine]: the values for the Ki (at human μ-opioid receptor; in experiment [1]) were 100 to 500 nM and 500 to 5000 nM, respectively.
Regarding `CNCCC(Oc1ccc(O)cc1-n1nc2c(N(C)C)nnc(C)c2c1C)c1ccccc1` (stereo not drawn) [Example 97, 3-(7-(Dimethylamino)-3,4-dimethyl-2H-pyrazolo[3,4-d]pyridazin-2-yl)-4-(3-(methylamino)-1-phenylpropoxy)phenol], the Ki on human μ-opioid receptor (setting [2]) was above 500 nM; in experiment [1] (setting [3]), 500 to 5000 nM.
Take `Cc1nnc(N(C)C)c2nn(-c3ccccc3OCC3CCNCC3)c(C)c12` [Example 3, N,N,3,4-tetramethyl-2-(2-(piperidin-4-ylmethoxy)phenyl)-2H-pyrazolo[3,4-d]pyridazin-7-amine]: the Ki on human μ-opioid receptor (setting [2]) is above 500 nM; in experiment [1] (setting [3]), above 5000 nM.
In the case of `CNCCC(Oc1ccccc1-n1nc2c(N(C)C)nnc(C)c2c1C)c1cccc(F)c1` (stereo not drawn) [Example 44, 2-(2-(1-(3-fluorophenyl)-3-(methylamino)propoxy)phenyl)-N,N,3,4-tetramethyl-2H-pyrazolo[3,4-d]pyridazin-7-amine], the Ki at human μ-opioid receptor was 100 to 500 nM; in experiment [1], below 500 nM.
As to `Cc1nnc(N(C)C)c2nn(-c3ccccc3OCCCNCCc3ccccc3)c(C)c12` [Example 31, N,N,3,4-tetramethyl-2-(2-(3-(phenethylamino)propoxy)phenyl)-2H-pyrazolo[3,4-d]pyridazin-7-amine], the Ki was above 500 nM at human μ-opioid receptor (setting [2]) and 500 to 5000 nM in experiment [1] (setting [3]).
Turning to `CNCCC(Oc1ccccc1-n1nc2c(Nc3ccccc3)nnc(C)c2c1C)c1ccccc1` (stereo not drawn) [Example 9, 3,4-dimethyl-2-(2-(3-(methylamino)-1-phenylpropoxy)phenyl)-N-phenyl-2H-pyrazolo[3,4-d]pyridazin-7-amine], the Ki was 100 to 500 nM at human μ-opioid receptor and above 5000 nM in experiment [1].
As for `CNCCC(Oc1ccccc1-n1nc2c(N(C)C)nnc(C)c2c1C)c1ccc(C#N)cc1` (stereo not drawn) [Example 15, 4-(1-(2-(7-(dimethylamino)-3,4-dimethyl-2H-pyrazolo[3,4-d]pyridazin-2-yl)phenoxy)-3-(methylamino)propyl)benzonitrile], the Ki on human μ-opioid receptor (setting [2]) is above 500 nM; in experiment [1] (setting [3]), 500 to 5000 nM.
